Key:
Format in all cases: biochemical
steroid sulphatase (STS) [1] = target: T1, steroid sulphatase (STS) (Homo sapiens, UniProt P08842); test: radiolabelled [3H] oestrone sulphate hydrolysis, purified placental STS, […] inhibitor
T1 construct: STS enzyme extracted from human placenta and purified
T1 sequence (P08842 22-583): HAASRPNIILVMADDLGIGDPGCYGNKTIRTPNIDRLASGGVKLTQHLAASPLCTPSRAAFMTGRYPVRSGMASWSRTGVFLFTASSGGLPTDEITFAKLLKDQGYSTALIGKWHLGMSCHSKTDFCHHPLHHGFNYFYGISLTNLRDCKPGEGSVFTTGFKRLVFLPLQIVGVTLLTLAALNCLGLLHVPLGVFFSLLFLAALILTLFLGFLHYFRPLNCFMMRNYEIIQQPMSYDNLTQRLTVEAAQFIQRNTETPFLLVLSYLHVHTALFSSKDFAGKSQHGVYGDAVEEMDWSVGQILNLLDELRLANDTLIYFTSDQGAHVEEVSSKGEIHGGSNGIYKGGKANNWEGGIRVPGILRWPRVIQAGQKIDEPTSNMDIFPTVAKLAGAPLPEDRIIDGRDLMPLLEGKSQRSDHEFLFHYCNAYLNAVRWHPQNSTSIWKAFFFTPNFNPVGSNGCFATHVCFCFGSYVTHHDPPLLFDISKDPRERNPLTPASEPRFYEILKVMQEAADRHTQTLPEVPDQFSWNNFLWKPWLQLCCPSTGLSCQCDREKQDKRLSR

steroid sulphatase (STS) [2] = target: T1, steroid sulphatase (STS); test: radiolabelled [3H] oestrone sulphate hydrolysis, purified placental STS, […] inhibitor (also MCF-7 cell IC50 […])
steroid sulphatase (STS) [3] = target: T1, steroid sulphatase (STS); test: as above; remark: listed apart in the source
steroid sulphatase (STS) [4] = target: T1, steroid sulphatase (STS); test: as above; remark: listed apart in the source

Row | remaining activity at 0.5 µM (steroid sulphatase (STS) [1]) | SMILES | other results
1 | 17.4% | NS(=O)(=O)Oc1ccc2cc(-c3cn(-c4cccc(F)c4)nn3)ccc2c1 [3B, 6-(1-(3-Fluorophenyl)-1H-1,2,3-triazol-4-yl)naphthalen-2-yl sulphamate] | 
2 |  | NS(=O)(=O)Oc1ccc2cc(-c3cn(-c4cc(F)cc(F)c4)nn3)ccc2c1 [3K, 6-(1-(3,5-Difluorophenyl)-1H-1,2,3-triazol-4-yl)naphthalen-2-yl sulphamate] | remaining activity at 0.5 µM (steroid sulphatase (STS) [2]): 14%
3 |  | NS(=O)(=O)Oc1ccc2cc(-c3cn(-c4ccccc4Cl)nn3)ccc2c1 [3I] | remaining activity at 0.5 µM (steroid sulphatase (STS) [3]): 16.9%
4 | 23.1% | NS(=O)(=O)Oc1ccc2cc(-c3cn(-c4ccc(Br)cc4)nn3)ccc2c1 [3G, 6-(1-(4-Bromophenyl)-1H-1,2,3-triazol-4-yl)naphthalen-2-yl sulphamate] | 
5 |  | NS(=O)(=O)Oc1ccc2cc(-c3cn(-c4ccc(F)c(F)c4F)nn3)ccc2c1 [3L, 6-(1-(2,3,4-Trifluorophenyl)-1H-1,2,3-triazol-4-yl)naphthalen-2-yl sulphamate] | remaining activity at 0.5 µM (steroid sulphatase (STS) [4]): 7.98%
6 | 18.7% | NS(=O)(=O)Oc1ccc2cc(-c3cn(-c4ccc(Cl)cc4)nn3)ccc2c1 [3F, 6-(1-(4-Chlorophenyl)-1H-1,2,3-triazol-4-yl)naphthalen-2-yl sulphamate] | 
7 | 15.9% | NS(=O)(=O)Oc1ccc2cc(-c3cn(-c4ccccc4Br)nn3)ccc2c1 [3J, 6-(1-(2-Bromophenyl)-1H-1,2,3-triazol-4-yl)naphthalen-2-yl sulphamate] | 
8 | 9.62% | NS(=O)(=O)Oc1ccc2cc(-c3cn(-c4cccc(Br)c4)nn3)ccc2c1 [3D, 6-(1-(3-Bromophenyl)-1H-1,2,3-triazol-4-yl)naphthalen-2-yl sulphamate] | 
9 | 9.66% | NS(=O)(=O)Oc1ccc2cc(-c3cn(-c4cccc(Cl)c4)nn3)ccc2c1 [3C, 6-(1-(3-Chlorophenyl)-1H-1,2,3-triazol-4-yl)naphthalen-2-yl sulphamate] | 

Reference: publication PMC7744152, “New potent steroid sulphatase inhibitors based on 6-(1-phenyl-1H-1,2,3-triazol-4-yl)naphthalen-2-yl sulphamate derivatives” (Journal of Enzyme Inhibition and Medicinal Chemistry, 2020)
